Converted amounts (≈) assume the structure as drawn. “And” between values parts separate entries of the source, which are not always exact repeats. Equal values may be shown once. Read-outs that look alike come from different tables or passages of the source. Bridge positions count the residues as written; N and C are the ends. Square brackets hold non-standard residues; d marks the D form. Peptide text beside a SMILES is read from it. * marks the point of attachment. Lauroyl = CCCCCCCCCCCC(=O)*; Nle = CCCC[C@H](N)C(=O)O; Dab = NCC[C@H](N)C(=O)O
How the values were obtained:
E. coli = conditions: for MIC E. coli NDM-1: highly-resistant, New Delhi metallo-beta-lactamase gene; for MIC E. coli VAL 5 / MIC E. coli MAC 21a / MIC E. coli VAL 10: resistant to nalidixic acid; for MIC E. coli MAC 21a / MIC E. coli VAL 10: cotrimoxazole and ampicillin
Experimental: (§1) Strains of E. coli and P. aeruginosa with resistance to quinolones and carbapenems as well as multi-drug-resistant bacteria were tested.
(§2) MICs were measured after 18–20 h of incubation in sterile 96-well plates (Corning Costar 3598 microtiter plates) in Mueller Hinton Broth (MHB) culture medium, (Difco, USA), according to well known in vitro protocols. Bacterial strains in Table 1 were: P. aeruginosa ATTC 9027, E. coli ATTC 8739, S. aureus ATTC 6538, and E. faecalis ATTC 29212. MICs shown in table 4 were performed by Mary Conrad at Cubist Pharmaceuticals (Lexington, MA) in non-binding surface plates.

P. aeruginosa = tested on: P. aeruginosa
Experimental: as §1, §2

S. aureus = test: microbe, parasite or virus in culture; assay type: cell-based, Staphylococcus aureus; conditions: for MIC: Staphylococcus aureus
Experimental: as §2

P. aeruginosa ATTC 9027 = assay type: cell-based, Pseudomonas aeruginosa; conditions: ATTC 9027
Experimental: as §2

E. coli ATTC 8739 = assay type: cell-based, Escherichia coli; conditions: ATTC 8739
Experimental: as §2

E. faecalis ATTC 29212 = test: microbe, parasite or virus in culture; assay type: cell-based, Enterococcus faecalis
Experimental: Lipopeptide 39 was chosen for this, as it is known that long fatty acids tend to favor activity against Gram-positive bacteria in polymyxin analogs. […] In summary, new broad-spectrum antimicrobial lipopeptides were achieved.
as §2

[1] = metabolic degradation; no reference given; cited from earlier work
E. coli (ATCC 25922) [2] = test: Flow cytometry (PI membrane permeability, BOX membrane potential), E. coli; assay type: cell-based, Escherichia coli; conditions: 5 μg/mL
Experimental: The mechanism of action at the membrane level of our best candidate was studied using flow cytometry. To assess membrane permeability, a propidium iodide (PI) probe was used[43][44]. The fluorescence conferred by this probe is generally associated with cells that have lost their membrane integrity. The effect on membrane potential was evaluated with bis-(1,3-dibutylbarbituric acid) trimethine oxonol (BOX). Membrane depolarization leads to the incorporation of this anionic dye into the cell where it binds to lipid-rich intracellular compounds, resulting in an increase in fluorescence.
(§3) An overnight culture (12 to 16 h) of S. aureus (ATCC 29213) or E. coli (ATCC 25922) in Tryptic Soy Broth (TSB) was grown at 37 °C and 400 μL were added in 50 mL of tryptone water (∼10^7 bacteria/mL). The bacterial suspension was split into aliquots of 4-5 mL and treated with the peptides (at the MIC) for different incubation times at room temperature. Cells were collected by centrifugation (10000 rpm, 20 min) and resuspended in 1 mL of filtered Ringer’s solution.
A stock solution of propidium iodide (PI, 1 mg/mL, Molecular Probes) and bis-(1,3-dibutylbarbituric acid) trimethine oxonol (BOX, 250 μM, Sigma Aldrich) was prepared in distilled water. Portions (10 μL and 2 μL, respectively) were added to aliquots of cells (100 μL of each sample in 1 mL of Ringer’s solution) to give a final concentration of 10 μg/mL of PI and 0.5 μM for BOX.
Flow cytometric measurements were performed on a Gallios multi-colour flow cytometer instrument (Beckman Coulter, Inc, Fullerton, CA) set up with the 3-lasers 10 colors standard configuration. Excitation was done using a blue (488 nm) laser. Forward scatter (FS), side scatter (SS), green fluorescence (525/40 nm) from BOX and red fluorescence (620/30 nm) emitted by PI were collected using logarithmic scales. FS was used as the discriminating parameter. The single-cell bacterial population was selected on a forward-side scatter plot. Fluorescence was presented in a dot plot of BOX vs. PI. Three regions were defined on this graph according to the controls: depolarized, permeabilized and non-affected cells. Control cells (non-stained and single stained populations) were used to define these regions. 25,000 cells defined according to their scatter parameters were counted in each sample.

E. coli (ATCC 25922) [3] = test: Reduction of viability by plate count, E. coli; assay type: cell-based, Escherichia coli; conditions: 5 μg/mL
Experimental: as §3

S. aureus ATTC 6538 = test: microbe, parasite or virus in culture; assay type: cell-based, Staphylococcus aureus; conditions: Staphylococcus aureus, ATTC6538, read-out: MIC S. aureus
Experimental: as §2

## colistin [PxE, reference compound]
E. coli
  MIC E. coli NDM-1: 0.5 µg/mL
  MIC E. coli VAL 5: 0.25 µg/mL
  MIC E. coli MAC 21a: 0.5 µg/mL
  MIC E. coli VAL 10: 0.5 µg/mL
P. aeruginosa; resistant to ceftazidime, ciprofloxacin, imipenem, piperacillin-tazobactam
  MIC P. aeruginosa 38a: 1 µg/mL
P. aeruginosa; resistant to imipenem
  MIC P. aeruginosa 40b: 1 µg/mL

## CCCCCCCCCCCC(=O)N[C@@H](CCN)C(=O)N[C@H](C(=O)N[C@@H](CCN)C(=O)N[C@H]1CSSC[C@H](C(N)=O)NC(=O)[C@H](CCN)NC(=O)[C@H](CCN)NC(=O)[C@H](CCCC)NC(=O)[C@@H](Cc2ccccc2)NC(=O)[C@H](CCN)NC1=O)[C@@H](C)O [Analog 39, dodecanoyl-Dab-Thr-Dab-Cys-Dab-Phe-Nle-Dab-Dab-Cys] (Lauroyl-[Dab]T[Dab]C[Dab][dF][Nle][Dab][Dab][dC]-NH2; disulfide 4-10)
S. aureus
  MIC S. aureus DR, MR SAU.1616: 8 µg/mL (≈ 6.32 µM)
  MIC S. aureus DR, MS SAU.278: 2 µg/mL (≈ 1.58 µM)
  MIC S. aureus MR ATTC 43300: 1 µg/mL (≈ 0.79 µM)
  MIC S. aureus MR SAU.1118: 1 µg/mL (≈ 0.79 µM)
  MIC S. aureus MS ATTC 29213: 1 µg/mL (≈ 0.79 µM)
P. aeruginosa ATTC 9027
  MIC P. aeruginosa: 1 µg/mL (≈ 0.79 µM)
E. coli ATTC 8739
  MIC E. coli: 4 µg/mL (≈ 3.16 µM)
E. faecalis ATTC 29212; ATTC 29212
  MIC E. faecalis Wild type ATTC 29212: 2 to 4 µg/mL
E. coli
  MIC E. coli NDM-1: 0.5 µg/mL (≈ 0.395 µM)
  MIC E. coli VAL 5: 0.5 µg/mL (≈ 0.395 µM)
  MIC E. coli MAC 21a: 1 µg/mL (≈ 0.79 µM)
  MIC E. coli VAL 10: 0.5 µg/mL (≈ 0.395 µM)
P. aeruginosa
  MIC P. aeruginosa 38a: 1 µg/mL (≈ 0.79 µM)
  MIC P. aeruginosa 40b: 2 µg/mL (≈ 1.58 µM)

## lanreotide [reference compound]
[1]
  half-lives: 2 to 3 h

## PxB nonapeptide [PxBN]
E. coli (ATCC 25922) [2]; 30 min
  % of stained cells BOX: 5%
  % of stained cells PI: 10%
E. coli (ATCC 25922) [2]; 60 min
  % of stained cells BOX: 3%-6% and 6%
  % of stained cells PI: 3%-6% and 3%
E. coli (ATCC 25922) [3]; 30 min
  % viability reduction: 0%
E. coli (ATCC 25922) [3]; 60 min
  % viability reduction: 5%

## CN[C@H](CC(C)C)C(=O)N[C@H]1C(=O)N[C@@H](CC(N)=O)C(=O)N[C@H]2C(=O)N[C@H]3C(=O)N[C@H](C(=O)N[C@H](C(=O)O)c4cc(O)cc(O)c4-c4cc3ccc4O)[C@H](O)c3ccc(c(Cl)c3)Oc3cc2cc(c3O[C@@H]2O[C@H](CO)[C@@H](O)[C@H](O)[C@H]2O[C@H]2C[C@](C)(N)[C@H](O)[C@H](C)O2)Oc2ccc(cc2Cl)[C@H]1O [Vancomycin]
S. aureus ATTC 6538
  MIC: 1 µg/mL (≈ 0.69 µM)
S. aureus; read-out: MIC S. aureus DR, MR SAU.1616
  MIC: 2 µg/mL (≈ 1.38 µM)
S. aureus; read-out: MIC S. aureus DR, MS SAU.278
  MIC: 2 µg/mL (≈ 1.38 µM)
S. aureus; read-out: MIC S. aureus MR ATTC 43300
  MIC: 2 µg/mL (≈ 1.38 µM)
S. aureus; read-out: MIC S. aureus MR SAU.1118
  MIC: 0.5 µg/mL (≈ 0.345 µM)
S. aureus; read-out: MIC S. aureus MS ATTC 29213
  MIC: 0.5 to 1 µg/mL (≈ 0.345 to 0.69 µM)
E. faecalis ATTC 29212; Enterococcus faecalis, ATTC29212, read-out: MIC E. faecalis Wild type ATTC 29212
  MIC: 2 µg/mL (≈ 1.38 µM)

Source: publication PMC4603705, “A bioinspired peptide scaffold with high antibiotic activity and low in vivo toxicity” (Scientific Reports, 2015)
